Test results taken from patent publication US11814392B2, “Chromenopyridine-based compounds and methods of making and use thereof” (Rosalind Franklin University of Medicine and Science, priority 2020, dated 2023).

Target: T1, PMCT (Homo sapiens, UniProt Q86YT5)
T1 construct: expressed in transfected cells; host or cells: HEK293T cells transfected with pcDNA3.1(+)-SLC13A5 using PEI
Assay: PMCT inhibition, citrate transport assay of whole HEK293T cells
Type: cell-based
Conditions: for dose-dependence of PMCT inhibition / PMCT Inhibition: HEK293T cells; for dose-dependence of PMCT inhibition: even at moderate concentrations (FIG. 1); for inhibition at 2.8 µM / inhibition at 28 µM / inhibition at 140 µM / inhibition at 280 µM: HEK-293T; for inhibition at 2.8 µM: read-out: PMCT Inhibition, Inhibitor Concentration 2.8 μM, HEK293T cells; for inhibition at 28 µM: read-out: PMCT Inhibition, Inhibitor Concentration 28 μM, HEK293T cells; for inhibition at 140 µM: read-out: PMCT Inhibition, Inhibitor Concentration 140 μM, HEK293T cells; for inhibition at 280 µM: read-out: PMCT Inhibition, Inhibitor Concentration 280 μM, HEK293T cells; for PMCT Inhibition: Inhibitor Concentration 280 μM, 280 µM

T1 sequence (Q86YT5 whole entry): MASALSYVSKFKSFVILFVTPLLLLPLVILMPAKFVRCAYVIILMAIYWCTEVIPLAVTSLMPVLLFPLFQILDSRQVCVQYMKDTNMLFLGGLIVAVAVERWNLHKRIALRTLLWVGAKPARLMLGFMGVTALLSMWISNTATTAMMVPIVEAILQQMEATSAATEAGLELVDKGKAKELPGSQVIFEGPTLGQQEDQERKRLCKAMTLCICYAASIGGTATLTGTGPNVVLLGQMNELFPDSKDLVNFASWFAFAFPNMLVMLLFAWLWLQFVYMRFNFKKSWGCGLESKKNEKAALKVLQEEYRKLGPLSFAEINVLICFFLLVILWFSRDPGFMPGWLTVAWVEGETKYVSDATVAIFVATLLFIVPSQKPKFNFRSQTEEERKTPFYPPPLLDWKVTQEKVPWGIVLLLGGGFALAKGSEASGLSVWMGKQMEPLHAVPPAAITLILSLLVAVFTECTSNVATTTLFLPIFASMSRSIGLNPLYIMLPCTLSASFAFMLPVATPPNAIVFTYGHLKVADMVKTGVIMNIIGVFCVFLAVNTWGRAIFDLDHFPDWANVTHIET

SMILES: COc1ccc(SC2c3c(OC)cc(OC)cc3Oc3nc(N)c(C#N)c(N)c32)cc1 (stereo not shown) [Compound 2, 2,4-diamino-6,8-dimethoxy-5-((4-methoxyphenyl)thio)-5H-chromeno[2,3-b]pyridine-3-carbonitrile]
- dose-dependence of PMCT inhibition: dose-dependent inhibition
- inhibition at 2.8 µM: 34.7%
- inhibition at 28 µM: 24%
- inhibition at 140 µM: 48.5%
- inhibition at 280 µM: 50%

SMILES: CSc1ccc(SC2c3ccc(O)cc3Oc3nc(N)c(C#N)c(N)c32)cc1 (stereo not shown) [Compound 3, 2,4-Diamino-8-hydroxy-5-((4-(methylthio)phenyl)thio)-5H-chromeno[2,3-b]pyridine-3-carbonitrile]
- dose-dependence of PMCT inhibition: dose-dependent inhibition
- inhibition at 2.8 µM: 6.2%
- inhibition at 28 µM: 9.9%
- inhibition at 140 µM: 28.6%
- inhibition at 280 µM: 58.7%

SMILES: CCN(CC)c1ccc2c(c1)Oc1nc(N)c(C#N)c(N)c1C2Sc1ccc(OC)cc1 (stereo not shown) [Compound 4, 2,4-diamino-8-(diethylamino)-5-((4-methoxyphenyl)thio)-5H-chromeno[2,3-b]pyridine-3-carbonitrile]
- inhibition at 2.8 µM: -23.2%
- inhibition at 28 µM: 28.6%
- inhibition at 280 µM: -8.7%

SMILES: COc1ccc(SC2c3ccc(O)cc3Oc3nc(N)c(C#N)c(N)c32)cc1 (stereo not shown) [Compound 5, 2,4-Diamino-8-hydroxy-5-((4-methoxyphenyl)thio)-5H-chromeno[2,3-b]pyridine-3-carbonitrile]
- inhibition at 2.8 µM: -12.8%
- inhibition at 28 µM: -4.5%
- inhibition at 280 µM: -3.2%

SMILES: COc1cc2c(cc1OC)C(Sc1ccc(SC)cc1)c1c(nc(N)c(C#N)c1N)O2 (stereo not shown) [Compound 6, 2,4-diamino-7,8-dimethoxy-5-((4-(methylthio)phenyl)thio)-5H-chromeno[2,3-b]pyridine-3-carbonitrile]
- dose-dependence of PMCT inhibition: dose-dependent inhibition
- inhibition at 2.8 µM: 9.4%
- inhibition at 28 µM: -45.9%
- inhibition at 140 µM: 46.8%
- inhibition at 280 µM: 70.2%
- PMCT Inhibition: 87.4%

SMILES: COc1ccc2c(c1)Oc1nc(N)c(C#N)c(N)c1C2Sc1ccc(O)cc1 (stereo not shown) [Compound 7, 2,4-Diamino-5-((4-hydroxyphenyl)thio)-8-methoxy-5H-chromeno[2,3-b]pyridine-3-carbonitrile]
- dose-dependence of PMCT inhibition: dose-dependent inhibition
- inhibition at 2.8 µM: 28%
- inhibition at 28 µM: -13.3%
- inhibition at 140 µM: 42.5%
- inhibition at 280 µM: 62.9%
- PMCT Inhibition: 77.7%

SMILES: CCN(CC)c1ccc2c(c1)Oc1nc(N)c(C#N)c(N)c1C2Sc1ccc(SC)cc1 (stereo not shown) [Compound 8, 2,4-diamino-8-(diethylamino)-5-((4-(methylthio)phenyl)thio)-5H-chromeno[2,3-b]pyridine-3-carbonitrile]
- inhibition at 2.8 µM: -41.5%
- inhibition at 28 µM: -1.5%
- inhibition at 280 µM: 58.4%

SMILES: CSc1ccc(SC2c3ccc(C)cc3Oc3nc(N)c(C#N)c(N)c32)cc1 (stereo not shown) [Compound 9, 2,4-Diamino-8-methyl-5-((4-(methylthio)phenyl)thio)-5H-chromeno[2,3-b]pyridine-3-carbonitrile]
- inhibition at 2.8 µM: 35.7%
- inhibition at 28 µM: 1.8%
- inhibition at 280 µM: 35.7%
